Where a name gives a salt, the structure may show the parent alone.
Biological target: T1, HCV polymerase (Hepatitis C virus genotype 1b, UniProt P26663)
T1 construct: a region encoding NS5B (J Virol 1991 March, 65(3), 1105-13, 544 amino acids after deletion of 47 amino acids on the C-terminal); 6xHis (C); made in house; host or cells: Escherichia coli
Test: biochemical
Design: species or system HCV BK strain
Method in brief: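 His-tagged NS5B (BK strain, 47-aa C-terminal deletion, E. coli-expressed) at 0.5 μg/ml copied 5 μg/ml run-off RNA bearing the HCV 3′ UTR with 2 μM UTP plus [3H]UTP, 50 μM ATP/GTP, in pH 7.5 Tris with 5 mM MgCl2, 25 °C, 90 min. TCA-precipitated RNA was counted and IC50 calculated.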

T1 sequence (P26663 2420-2963): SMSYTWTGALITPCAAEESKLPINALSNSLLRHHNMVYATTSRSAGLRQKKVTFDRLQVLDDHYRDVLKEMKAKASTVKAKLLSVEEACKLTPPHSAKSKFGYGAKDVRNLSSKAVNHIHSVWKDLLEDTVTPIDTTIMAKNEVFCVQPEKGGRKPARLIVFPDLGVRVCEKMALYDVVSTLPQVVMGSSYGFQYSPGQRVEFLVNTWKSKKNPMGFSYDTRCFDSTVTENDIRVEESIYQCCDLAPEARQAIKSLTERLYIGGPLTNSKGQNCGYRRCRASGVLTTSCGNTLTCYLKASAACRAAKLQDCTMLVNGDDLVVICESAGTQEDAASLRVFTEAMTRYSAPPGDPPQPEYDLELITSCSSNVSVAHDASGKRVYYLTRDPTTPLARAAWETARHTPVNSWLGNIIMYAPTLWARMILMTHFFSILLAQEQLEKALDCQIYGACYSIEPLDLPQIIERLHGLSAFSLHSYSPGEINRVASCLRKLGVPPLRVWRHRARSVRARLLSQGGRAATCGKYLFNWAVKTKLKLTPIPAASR

`O=C(O)c1ccc2c(C3CCCCC3)c3n(c2c1)CCN(CCN1CCCCCC1)c1ccccc1-3` [Example 1-83, 5-[2-(azepan-1-yl)ethyl]-13-cyclohexyl-6,7-dihydro-5H-benzo[5,6][1,4]diazepino[7,1-a]indole-10-carboxylic acid dihydrochloride] and `CC(=O)N1CCN(CCN2CCn3c(c(C4CCCCC4)c4ccc(C(=O)O)cc43)-c3ccccc32)CC1` [Example 1-98, 5-[2-(4-acetylpiperazin-1-yl)ethyl]-13-cyclohexyl-6,7-dihydro-5H-benzo[5,6][1,4]diazepino[7,1-a]indole-10-carboxylic acid dihydrochloride] cannot be ordered by IC50: < 100 nM for the first, < 100 nM for the second.

`CCN1CCN(C(=O)CN2CCn3c(c(C4CCCCC4)c4ccc(C(=O)NC)cc43)-c3ccccc32)CC1` [Example 1-84, 13-cyclohexyl-5-[2-(4-ethylpiperazin-1-yl)-2-oxoethyl]-N-methyl-6,7-dihydro-5H-benzo[5,6][1,4]diazepino[7,1-a]indole-10-carboxamide] and `CCN1CCN(C(=O)CN2CCn3c(c(C4CCCCC4)c4ccc(C(=O)NC(C)=O)cc43)-c3ccccc32)CC1` [Example 1-102, N-acetyl-13-cyclohexyl-5-[2-(4-ethylpiperazin-1-yl)-2-oxoethyl]-6,7-dihydro-5H-benzo[5,6][1,4]diazepino[7,1-a]indole-10-carboxamide] cannot be ordered by IC50: < 100 nM for the first, < 100 nM for the second.

First: CCN1CCN(C(=O)CN2CCn3c(c(C4CCCCC4)c4ccc(C(=O)NCCO)cc43)-c3ccccc32)CC1 [Example 1-85, 13-cyclohexyl-5-[2-(4-ethylpiperazin-1-yl)-2-oxoethyl]-N-(2-hydroxyethyl)-6,7-dihydro-5H-benzo[5,6][1,4]diazepino[7,1-a]indole-10-carboxamide]
Second: CCN1CCN(C(=O)CN2CCn3c(c(C4CCCCC4)c4ccc(C(=O)NC(C)(C)CO)cc43)-c3ccccc32)CC1 [Example 1-86, 13-cyclohexyl-5-[2-(4-ethylpiperazin-1-yl)-2-oxoethyl]-N-(2-hydroxy-1,1-dimethylethyl)-6,7-dihydro-5H-benzo[5,6][1,4]diazepino[7,1-a]indole-10-carboxamide]
The IC50 of the first is lower: < 100 nM for the first, 100 to 1000 nM for the second.

`CN(C)C(=O)N1CCN(CCN2CCn3c(c(C4CCCCC4)c4ccc(C(=O)O)cc43)-c3ccccc32)CC1` [Example 1-87, 13-cyclohexyl-5-[2-(4-dimethylcarbamoylpiperazin-1-yl)ethyl]-6,7-dihydro-5H-benzo[5,6][1,4]diazepino[7,1-a]indole-10-carboxylic acid dihydrochloride] and `CCOC(=O)N1CCN(CCN2CCn3c(c(C4CCCCC4)c4ccc(C(=O)O)cc43)-c3ccccc32)CC1` [Example 1-97, 13-cyclohexyl-5-[2-(4-ethoxycarbonylpiperazin-1-yl)ethyl]-6,7-dihydro-5H-benzo[5,6][1,4]diazepino[7,1-a]indole-10-carboxylic acid dihydrochloride] cannot be ordered by IC50: < 100 nM for the first, < 100 nM for the second.

`O=C(O)c1ccc2c(C3CCCCC3)c3n(c2c1)CCN(CCN1CCN(C(=O)c2ccccc2)CC1)c1ccccc1-3` [Example 1-88, 5-[2-(4-benzoylpiperazin-1-yl)ethyl]-13-cyclohexyl-6,7-dihydro-5H-benzo[5,6][1,4]diazepino[7,1-a]indole-10-carboxylic acid dihydrochloride] and `CC(C)(C)OC(=O)N1CCN(CCN2CCn3c(c(C4CCCCC4)c4ccc(C(=O)O)cc43)-c3ccccc32)CC1` [Example 1-95, 5-[2-(4-tert-butoxycarbonylpiperazin-1-yl)ethyl]-13-cyclohexyl-6,7-dihydro-5H-benzo[5,6][1,4]diazepino[7,1-a]indole-10-carboxylic acid dihydrochloride] cannot be ordered by IC50: < 100 nM for the first, < 100 nM for the second.

`CC(C)(C)OC(=O)N1CCC(CCN2CCn3c(c(C4CCCCC4)c4ccc(C(=O)O)cc43)-c3ccccc32)CC1` [Example 1-89, 5-[2-(1-tert-butoxycarbonylpiperidin-4-yl)ethyl]-13-cyclohexyl-6,7-dihydro-5H-benzo[5,6][1,4]diazepino[7,1-a]indole-10-carboxylic acid] and `CC(=O)N1CCC(CCN2CCn3c(c(C4CCCCC4)c4ccc(C(=O)O)cc43)-c3ccccc32)CC1` [Example 1-92, 5-[2-(1-acetylpiperidin-4-yl)ethyl]-13-cyclohexyl-6,7-dihydro-5H-benzo[5,6][1,4]diazepino[7,1-a]indole-10-carboxylic acid monohydrochloride] cannot be ordered by IC50: < 100 nM for the first, < 100 nM for the second.

`O=C(O)c1ccc2c(C3CCCCC3)c3n(c2c1)CCN(CCN1CCCC1=O)c1ccccc1-3` [Example 1-90, 13-cyclohexyl-5-[2-(2-oxopyrrolidin-1-yl)ethyl]-6,7-dihydro-5H-benzo[5,6][1,4]diazepino[7,1-a]indole-10-carboxylic acid monohydrochloride] and `CCN1CCC(CCN2CCn3c(c(C4CCCCC4)c4ccc(C(=O)O)cc43)-c3ccccc32)CC1` [Example 1-93, 13-cyclohexyl-5-[2-(1-ethylpiperidin-4-yl)ethyl]-6,7-dihydro-5H-benzo[5,6][1,4]diazepino[7,1-a]indole-10-carboxylic acid dihydrochloride] cannot be ordered by IC50: < 100 nM for the first, < 100 nM for the second.

`CS(=O)(=O)N1CCN(CCN2CCn3c(c(C4CCCCC4)c4ccc(C(=O)O)cc43)-c3ccccc32)CC1` [Example 1-91, 13-cyclohexyl-5-[2-(4-methanesulfonylpiperazin-1-yl)ethyl]-6,7-dihydro-5H-benzo[5,6][1,4]diazepino[7,1-a]indole-10-carboxylic acid dihydrochloride] and `CS(=O)(=O)N1CCC(CCN2CCn3c(c(C4CCCCC4)c4ccc(C(=O)O)cc43)-c3ccccc32)CC1` [Example 1-94, 13-cyclohexyl-5-[2-(1-methanesulfonylpiperidin-4-yl)ethyl]-6,7-dihydro-5H-benzo[5,6][1,4]diazepino[7,1-a]indole-10-carboxylic acid monohydrochloride] cannot be ordered by IC50: < 100 nM for the first, < 100 nM for the second.

`CCN1CCN(C(=O)CN2CCn3c(c(C4CCCCC4)c4ccc(-c5nn[nH]n5)cc43)-c3ccccc32)CC1` [Example 1-96, 2-[13-cyclohexyl-10-(2H-tetrazol-5-yl)-6,7-dihydrobenzo[5,6][1,4]diazepino[7,1-a]indol-5-yl]-1-(4-ethylpiperazin-1-yl)ethanone] and `CN(C)CCN1CCn2c(c(C3CCCCC3)c3ccc(C(=O)O)cc32)-c2ccccc21` [Example 1-99, 13-cyclohexyl-5-(2-dimethylaminoethyl)-6,7-dihydro-5H-benzo[5,6][1,4]diazepino[7,1-a]indole-10-carboxylic acid dihydrochloride] cannot be ordered by IC50: < 100 nM for the first, < 100 nM for the second.

`O=C(O)c1ccc2c(C3CCCCC3)c3n(c2c1)CCNc1cc(OCc2cc(N4CCCC4=O)ccc2N2CCOCC2)ccc1-3` [Example 1-100, 13-cyclohexyl-3-[2-(morpholin-4-yl)-5-(2-oxopyrrolidin-1-yl)benzyloxy]-6,7-dihydro-5H-benzo[5,6][1,4]diazepino[7,1-a]indole-10-carboxylic acid dihydrochloride] and `CS(=O)(=O)c1ccc(N2CCOCC2)c(COc2ccc3c(c2)NCCn2c-3c(C3CCCCC3)c3ccc(C(=O)O)cc32)c1` [Example 1-101, 13-cyclohexyl-3-[5-methanesulfonyl-2-(morpholin-4-yl)benzyloxy]-6,7-dihydro-5H-benzo[5,6][1,4]diazepino[7,1-a]indole-10-carboxylic acid dihydrochloride] cannot be ordered by IC50: < 100 nM for the first, < 100 nM for the second.
